Measured values taken from US20250129027A1 (APOGEE PHARMACEUTICALS, INC., priority 2023, published 2025).

Tests used:
[1] = molecular target: human recombinant FAAH (Homo sapiens (Human), UniProt O00519); experiment: In vitro inhibition of FAAH activity (fluorescent inhibitor screening kit, AMC arachidonoyl amide); format: biochemical; conditions: human recombinant FAAH; read-out: Inhibition on FAAH activity (IC50)
Description: The inhibitory effect of compounds of Formula (I-IV) on the activity of human recombinant FAAH was studied using a commercial inhibitor screening kit (Cayman Chemicals, Godlewski et al., 2010 [19]). In brief, FAAH hydrolyzes AMC arachidonoyl amide resulting in the release of the fluorescent product, while the inhibitor will inhibit the FAAH activity and thus reduce the fluorescent signal. The resulting fluorophore can be analyzed using an excitation wavelength of 340-360 nm and an emission wavelength of 450-465 nm by a plate reader (Synergy H1, Biotek). Inhibition is calculated as a percentage of the treated sample over the non-treated control based on the signal values, and where possible, a range of concentrations of compounds was tested to find the IC50 values (i.e. the concentration of compound that inhibited 50% FAAH activity).

[2] = molecular target: human recombinant MAGL (Homo sapiens (Human), UniProt Q99685); experiment: In vitro inhibition of MAGL activity (inhibitor screening kit, 4-nitrophenylacetate); format: biochemical; conditions: human recombinant MAGL
Procedure: The inhibitory effect of the compounds on activity of human recombinant MAGL was also studied using a commercial inhibitor screening kit (Cayman Chemicals). In brief, MAGL hydrolyzes 4-nitrophenylacetate resulting in a yellow product, 4-nitrophenol with an absorbance at 405-412 nm, while the inhibitor will inhibit the MAGL activity and thus reduce the yellow signal. The absorbance of the yellow product can be analyzed using the plate reader. Inhibition is calculated as a percentage of the treated sample over the non-treated MAGL control based on the signal values.

human recombinant MAGL, sequence (Q99685 whole entry): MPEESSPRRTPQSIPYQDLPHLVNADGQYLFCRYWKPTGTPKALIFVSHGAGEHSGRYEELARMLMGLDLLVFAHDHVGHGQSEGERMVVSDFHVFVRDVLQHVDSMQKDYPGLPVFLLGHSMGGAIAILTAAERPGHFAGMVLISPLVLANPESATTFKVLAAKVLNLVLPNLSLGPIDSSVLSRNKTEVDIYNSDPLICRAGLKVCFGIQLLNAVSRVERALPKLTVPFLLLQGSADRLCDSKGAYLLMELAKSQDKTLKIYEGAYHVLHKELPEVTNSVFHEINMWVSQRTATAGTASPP
human recombinant FAAH, sequence (O00519 whole entry): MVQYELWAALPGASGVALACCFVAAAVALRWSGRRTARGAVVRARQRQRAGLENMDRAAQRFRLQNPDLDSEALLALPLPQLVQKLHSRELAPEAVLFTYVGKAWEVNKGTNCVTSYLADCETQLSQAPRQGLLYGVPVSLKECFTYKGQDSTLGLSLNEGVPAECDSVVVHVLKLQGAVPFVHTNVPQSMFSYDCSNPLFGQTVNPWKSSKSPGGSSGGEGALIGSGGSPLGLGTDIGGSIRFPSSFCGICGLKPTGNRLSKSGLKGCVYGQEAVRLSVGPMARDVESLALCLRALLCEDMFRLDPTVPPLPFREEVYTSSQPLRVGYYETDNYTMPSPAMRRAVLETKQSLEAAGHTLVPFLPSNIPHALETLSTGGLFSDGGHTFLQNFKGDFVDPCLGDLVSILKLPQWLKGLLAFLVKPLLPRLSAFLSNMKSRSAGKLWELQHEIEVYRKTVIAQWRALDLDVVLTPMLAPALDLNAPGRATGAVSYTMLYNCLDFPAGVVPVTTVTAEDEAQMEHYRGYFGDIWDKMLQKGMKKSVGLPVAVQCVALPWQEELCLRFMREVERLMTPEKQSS

Row | Compound | IC50 [1] [µM] | IC50 [2] [µM]
1 | 3-(5-(1,3,4-oxadiazol-2-yl pyridin-3-yl)phenyl pentylcarbamate [Example 127] | 0.01 to 0.1 | > 50
2 | 3-(5-(1,3,4-oxadiazol-2-yl)134 pyridine-3-yl)phenyl heptylcarbamate [Example 129] | 0.001 to 0.01 | > 10
3 | CCCCCNC(=O)Oc1cccc(-c2cncc(C(=O)OCC)c2)c1 [Example 1, ethyl 5-(3-((pentylcarbamoyl)oxy)phenyl)nicotinate] | 0.01 to 0.1 | 
4 | CCCCCCCNC(=O)Oc1cccc(-c2cncc(C(=O)OCC)c2)c1 [Example 2, ethyl 5-(3-((heptylcarbamoyl)oxy)phenyl)nicotinate] | 0.01 to 0.1 | 1 to 10
5 | CCCCCCCCNC(=O)Oc1cccc(-c2cncc(C(=O)OCC)c2)c1 [Example 3, ethyl 5-(3-((octylcarbamoyl)oxy)phenyl)nicotinate] | 0.01 to 0.1 | 
6 | CCCCCCCCCCCCCCNC(=O)Oc1cccc(-c2cncc(C(=O)OCC)c2)c1 [Example 4, ethyl 5-(3-((tetradecylcarbamoyl)oxy)phenyl)nicotinate] | 0.001 to 0.01 | 1 to 10
7 | CCOC(=O)c1cncc(-c2cccc(OC(=O)NC3CCCC3)c2)c1 [Example 5, ethyl 5-(3-((cyclopentylcarbamoyl)oxy)phenyl)nicotinate] | 0.01 to 0.1 | > 10
8 | CCOC(=O)c1cncc(-c2cccc(OC(=O)NC3CCCCC3)c2)c1 [Example 6, ethyl 5-(3-((cyclohexylcarbamoyl)oxy)phenyl)nicotinate] | > 0.1 | > 0.1
9 | CCOC(=O)c1cncc(-c2cccc(OC(=O)Nc3ccc(F)cc3)c2)c1 [Example 7, ethyl 5-(3-(((4-fluorophenyl)carbamoyl)oxy)phenyl)nicotinate] | > 1 | > 10
10 | CCCCCNC(=O)Oc1cccc(-c2cncc(C(=O)OC)c2)c1 [Example 8, methyl 5-(3-((pentylcarbamoyl)oxy)phenyl)nicotinate] | 0.01 to 0.1 | 
11 | CCCCCCCNC(=O)Oc1cccc(-c2cncc(C(=O)OC)c2)c1 [Example 9, methyl 5-(3-((heptylcarbamoyl)oxy)phenyl)nicotinate] | 0.001 to 0.01 | 
12 | CCCCCCCCNC(=O)Oc1cccc(-c2cncc(C(=O)OC)c2)c1 [Example 10, methyl 5-(3-((octylcarbamoyl)oxy)phenyl)nicotinate] | 0.001 to 0.01 | 
13 | COC(=O)c1cncc(-c2cccc(OC(=O)NC3CCCC3)c2)c1 [Example 11, methyl 5-(3-((cyclopentylcarbamoyl)oxy)phenyl)nicotinate] | 0.01 to 0.1 | > 10
14 | COC(=O)c1cncc(-c2cccc(OC(=O)NC3CCCCC3)c2)c1 [Example 12, methyl 5-(3-((cyclohexylcarbamoyl)oxy)phenyl)nicotinate] | 0.01 to 0.1 | > 10
15 | COC(=O)c1cncc(-c2cccc(OC(=O)NC34CC5CC(CC(C5)C3)C4)c2)c1 [Example 13, methyl 5-(3-((((1s,3s)-adamantan-1-yl)carbamoyl)oxy)phenyl)nicotinate] | > 1 | > 10
16 | CCCCCNC(=O)Oc1cccc(-c2cncc(C=O)c2)c1 [Example 14, 3-(5-formylpyridin-3-yl)phenyl pentylcarbamate] | 0.01 to 0.1 | 10 to 50
17 | CCCCCCCNC(=O)Oc1cccc(-c2cncc(C=O)c2)c1 [Example 15, 3-(5-formylpyridin-3-yl)phenyl heptylcarbamate] | 0.01 to 0.1 | 10 to 50
18 | CCCCCCCCNC(=O)Oc1cccc(-c2cncc(C=O)c2)c1 [Example 16, 3-(5-formylpyridin-3-yl)phenyl octylcarbamate] | 0.01 to 0.1 | 1 to 10

Row | Compound | IC50 [1] [µM] | IC50 [2] [µM]
19 | O=Cc1cncc(-c2cccc(OC(=O)NCC3CCCCC3)c2)c1 [Example 17, 3-(5-formylpyridin-3-yl)phenyl (cyclohexylmethyl)carbamate] | 0.01 to 0.1 | > 10
20 | CCCCCCCNC(=O)Oc1cccc(-c2cncc(C#N)c2)c1 [Example 26, 3-(5-cyanopyridin-3-yl)phenyl heptylcarbamate] | 0.01 to 0.1 | 
21 | CCCCCCCCNC(=O)Oc1cccc(-c2cncc(C#N)c2)c1 [Example 27, 3-(5-cyanopyridin-3-yl)phenyl octylcarbamate] | 0.01 to 0.1 | 
22 | CCCCCCCCNC(=O)Oc1cccc(-c2cncc(C(F)(F)F)c2)c1 [Example 30, 3-(5-(trifluoromethyl)pyridin-3-yl)phenyl octylcarbamate] | 0.01 to 0.1 | 
23 | CCCCCCCCNC(=O)Oc1ccc(OC)c(-c2cncc(-c3ccc[nH]3)c2)c1 [Example 41, 3-(5-(1H-pyrrol-2-yl)pyridin-3-yl)-4-methoxyphenyl octylcarbamate] | 0.01 to 0.1 | 
24 | CCCCCCCCNC(=O)Oc1cccc(-c2cncc(-c3ccco3)c2)c1 [Example 47, 3-(5-(furan-2-yl)pyridin-3-yl)phenyl octylcarbamate] | 0.001 to 0.01 | 
25 | CCCCCCCCNC(=O)Oc1ccc(OC)c(-c2cncc(-c3cccs3)c2)c1 [Example 65, 4-methoxy-3-(5-(thiophen-2-yl)pyridin-3-yl)phenyl octylcarbamate] | 0.01 to 0.1 | 
26 | CCCCCCCCNC(=O)Oc1ccc(OC(F)(F)F)c(-c2cncc(-c3ncco3)c2)c1 [Example 88, 3-(5-(oxazol-2-yl)pyridin-3-yl)-4-(trifluoromethoxy)phenyl octylcarbamate] | 0.01 to 0.1 | 
27 | CCCCCCNC(=O)Oc1cccc(-c2cncc(-c3nnco3)c2)c1 [Example 128, 3-(5-(1,3,4-oxadiazol-2-yl)pyridin-3-yl)phenyl hexylcarbamate] | 0.01 to 0.02 | 
28 | CCCCCCCCNC(=O)Oc1cccc(-c2cncc(-c3nnco3)c2)c1 [Example 130, 3-(5-(1,3,4-oxadiazol-2-yl)pyridine-3-yl)phenyl octylcarbamate] | 0.001 to 0.01 | 
29 | CCCCCCCCCCCCNC(=O)Oc1cccc(-c2cncc(-c3nnco3)c2)c1 [Example 131, 3-(5-(1,3,4-oxadiazol-2-yl)pyridin-3-yl)phenyl dodecylcarbamate] | 0.01 to 0.02 | 
30 | CCCCCCCNC(=O)Oc1ccc(O)c(-c2cncc(-c3nnco3)c2)c1 [Example 156, 3-(5-(1,3,4-oxadiazol-2-yl)pyridin-3-yl)-4-hydroxyphenyl heptylcarbamate] | 0.001 to 0.01 | 
31 | CCCCCCCCNC(=O)Oc1ccc(O)c(-c2cncc(-c3nnco3)c2)c1 [Example 157, 3-(5-(1,3,4-oxadiazol-2-yl)pyridin-3-yl)-4-hydroxyphenyl octylcarbamate] | 0.001 to 0.01 | 
32 | CCCCCCCNC(=O)Oc1ccc(OC)c(-c2cncc(-c3nnco3)c2)c1 [Example 166, 3-(5-(1,3,4-oxadiazol-2-yl)pyridin-3-yl)-4-methoxyphenyl heptylcarbamate] | 0.01 to 0.1 | 
33 | CCCCCCCCNC(=O)Oc1ccc(OC)c(-c2cncc(-c3nnco3)c2)c1 [Example 167, 3-(5-(1,3,4-oxadiazol-2-yl)pyridin-3-yl)-4-methoxyphenyl octylcarbamate] | 0.001 to 0.01 | 
34 | COc1ccc(OC(=O)NC2CCCCC2)cc1-c1cncc(-c2nncs2)c1 [Example 217, 3-(5-(1,3,4-thiadiazol-2-yl)pyridin-3-yl)-4-methoxyphenyl cyclohexylcarbamate] | 0.1 to 1 | 
35 | O=C(NC1CCCCC1)Oc1cccc(-c2cc(-c3nnco3)ccn2)c1 [Example 260, 3-(4-(1,3,4-oxadiazol-2-yl)pyridin-2-yl)phenyl cyclohexylcarbamate] |  | > 10
